{"source": "patent US20240301474A1", "about": "“NUCLEASES FOR SIGNAL AMPLIFICATION” (Amazon Technologies, Inc., priority 2021, published 2024)", "molecules": {"B1": {"name": "NucC: nuclease; amino acid sequence SEQ ID NO: 2 (NucC wild sequence) (protein, listed as Escherichia coli)", "chain": "MSDWSLSQLFASLHEDIQLRLGTARKAFQHPGAKGDASEGVWIEMLDTYLPKRYQAANAFVVDSLGNFSDQIDVVVFDRQYSPFIFKFNEQIIVPAESVYAVFEAKQSASADLVAYAQRKVASVRRLHRTSLPIPHAGGTYPAKPLIPILGGLLTFESDWSPALGMSFDKALNGDLSDGRLDMGCVASHGHFYFNNIDSKFNFEHGNKPATAFLFRLIAQLQFSGTVPMIDIDAYGKWLAN"}}, "key": {"TtCsm6 [1]": {"target": "T1, TtCsm6 (Thermus thermophilus, UniProt Q53W17, G18R)", "T1 sequence (Q53W17 whole entry G18R)": "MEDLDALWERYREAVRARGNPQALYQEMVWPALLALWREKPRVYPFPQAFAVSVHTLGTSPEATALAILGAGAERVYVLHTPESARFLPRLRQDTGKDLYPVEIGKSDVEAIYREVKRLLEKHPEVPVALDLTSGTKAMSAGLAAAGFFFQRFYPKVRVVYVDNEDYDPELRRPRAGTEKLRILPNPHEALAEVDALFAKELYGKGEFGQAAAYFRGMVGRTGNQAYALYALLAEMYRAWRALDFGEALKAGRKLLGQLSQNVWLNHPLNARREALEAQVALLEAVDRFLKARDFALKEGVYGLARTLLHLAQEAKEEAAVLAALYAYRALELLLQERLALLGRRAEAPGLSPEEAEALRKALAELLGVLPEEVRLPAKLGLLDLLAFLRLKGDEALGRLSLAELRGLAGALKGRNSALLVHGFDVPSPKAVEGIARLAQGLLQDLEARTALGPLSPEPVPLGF", "details": "100 nM TtCsm6, 10 μM cA4, FIG. 22", "procedure": "(§4) Varying concentrations of nuclease (SyCsx1, PfuCsx1, or TtCsm6) in reaction buffer (2.1 NEB Buffer-50 mM NaCl, 10 mM Tris-HCl, 10 mM MgCl2, 100 μg/ml BSA) with 1 U/μl murine RNase inhibitor (NEB) and 600 nM FAM-Q reporter (IDT) was mixed with varying concentrations of cA3, cA4, cA6, rA3>P or rA4>P (Biolog or IDT). Negative control was water free of activator. Measurements were taken at 37° C. every 1 min in a Tecan Infinite 200 PRO plate reader (λex, 485 nm; λem, 535 nm).\n(§5) The objective of these experiments was to determine the preferred reporters for SyCsx1, PfuCsx1, and TtCsm6 incubated with cyclic activator cA4."}, "SyCsx1 [2]": {"tested_on": "SyCsx1", "sequence (as listed by the source)": "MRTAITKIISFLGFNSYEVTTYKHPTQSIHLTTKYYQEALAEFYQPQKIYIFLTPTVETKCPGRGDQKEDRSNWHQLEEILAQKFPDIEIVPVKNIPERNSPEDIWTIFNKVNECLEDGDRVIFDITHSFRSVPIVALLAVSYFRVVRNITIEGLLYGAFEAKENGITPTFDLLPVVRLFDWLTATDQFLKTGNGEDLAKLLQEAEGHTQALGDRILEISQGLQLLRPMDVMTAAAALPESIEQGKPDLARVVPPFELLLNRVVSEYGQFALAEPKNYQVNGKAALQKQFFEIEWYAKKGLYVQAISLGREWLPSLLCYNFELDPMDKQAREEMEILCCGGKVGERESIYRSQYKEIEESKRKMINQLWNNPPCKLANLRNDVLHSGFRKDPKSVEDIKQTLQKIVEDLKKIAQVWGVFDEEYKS", "assay": "Reporter preference assay, SyCsx1 activated by cA4", "details": "100 nM SyCsx1, 10 μM cA4, FIG. 20", "procedure": "as §4, §5"}, "PfuCsx1 [3]": {"tested_on": "PfuCsx1", "sequence (as listed by the source)": "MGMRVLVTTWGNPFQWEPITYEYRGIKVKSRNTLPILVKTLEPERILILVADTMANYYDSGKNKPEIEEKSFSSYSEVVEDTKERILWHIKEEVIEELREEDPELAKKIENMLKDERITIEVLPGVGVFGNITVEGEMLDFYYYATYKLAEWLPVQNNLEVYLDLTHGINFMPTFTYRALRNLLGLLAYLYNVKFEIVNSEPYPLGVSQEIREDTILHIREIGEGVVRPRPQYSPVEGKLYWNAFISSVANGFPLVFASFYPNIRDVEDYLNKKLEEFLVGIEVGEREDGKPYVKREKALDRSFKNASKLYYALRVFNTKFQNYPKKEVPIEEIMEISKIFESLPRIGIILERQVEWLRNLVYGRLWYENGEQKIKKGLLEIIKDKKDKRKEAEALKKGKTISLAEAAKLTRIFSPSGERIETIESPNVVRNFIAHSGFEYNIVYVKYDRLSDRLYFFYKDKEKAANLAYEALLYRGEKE", "assay": "Reporter preference assay, PfuCsx1 activated by cA4", "details": "100 nM PfuCsx1, 10 μM cA4, FIG. 21", "procedure": "as §4, §5"}, "SyCsx1 [4]": {"tested_on": "SyCsx1", "assay": "Activation of SyCsx1 by linear and cyclic activators (FAM-Q fluorescence)", "details": "100 nM SyCsx1, FAM-Q polyC ssRNA reporter; for activation of SyCsx1 (fluorescence time course): 37° C., FIG. 14A/14B; for rapidity of SyCsx1 activation (time until maximum fluorescence): FIG. 14B", "procedure": "(§6) The objective of these experiments was to assess activation of SyCsx1, PfuCsx1, and TtCsm6 by incubating the nucleases with cyclic or linear activators.\nas §4"}, "TtCsm6 [5]": {"target": "T1, TtCsm6", "assay": "Activation of TtCsm6 by linear and cyclic activators (fluorescence)", "details": "100 nM TtCsm6, RNAse Alert (IDT) reporter, FIG. 16", "procedure": "as §6, §4"}, "PfuCsx1 [6]": {"tested_on": "PfuCsx1", "assay": "Activation of PfuCsx1 by linear and cyclic activators (FAM-Q fluorescence)", "details": "100 nM PfuCsx1, FAM-Q polyA ssRNA reporter, FIG. 15", "procedure": "as §6, §4"}, "NucC enzyme": {"target": "NucC enzyme (Escherichia coli, UniProt D7Y2H5)", "assay": "NucC activation by cyclic and linear activator with dsM13 plasmid", "assay_type": "biochemical", "details": "10 nM NucC, 10 nM activator, 37° C., 4 hours", "experimental": "The objective of this experiment was to achieve activation of the NucC enzyme by incubating this enzyme with its cyclic (c-triAMP) and linear (triAMP)>P activator and the dsM13 plasmid.\nThe conditions that were tested are outlined in Table 14 below.\nA NucC Mix (dsM13) was prepared as outlined in Table 15 below.\nThe mixture described in Table 15 was divided into two PCT tubes. The mixture was then incubated at 37° C. for 4 hours. Next, the samples were run on a 1.5% agarose gel."}, "SyCsx1 [7]": {"tested_on": "SyCsx1", "assay": "Limit of detection (LoD) assay, SyCsx1 activated by rA4>P", "details": "10 nM SyCsx1, FAM-Q polyC reporter; 0.1, 1, 10 nM tested; FIG. 17", "procedure": "as §4"}, "TtCsm6 [8]": {"target": "T1, TtCsm6", "assay": "Limit of detection (LoD) assay, TtCsm6 activated by rA4>P", "details": "100 nM TtCsm6, FAM-Q polyC reporter; 0.01, 0.1, 1, 10 μM tested; FIG. 19", "procedure": "as §4"}, "PfuCsx1 [9]": {"tested_on": "PfuCsx1", "assay": "Limit of detection (LoD) assay, PfuCsx1 activated by rA4>P", "details": "100 nM PfuCsx1, FAM-Q polyA reporter; 0.01, 0.1, 1, 10 μM tested; FIG. 18", "procedure": "as §4"}, "[10]": {"tested_on": "dsM13 (M13mp18 RF I plasmid)", "assay": "NucC activity assay with M13 plasmid (double-stranded)", "assay_type": "biochemical", "details": "10 nM NucC, 10 nM c(triAMP), 37° C., 2:30 hours, 1% agarose gel", "experimental": "(§1) The objective of this experiment was to determine whether the NucC enzyme cleaves both double-stranded DNA and single-stranded DNA by incubating the enzyme with its cyclic activator (c-triAMP) and the dsM13 or ssM13 plasmid.\n(§2) The conditions that were tested are outlined in Table 11 below.\nA first NucC Mix (dsM13) was prepared as outlined in Table 12 below.\n(§3) Each mixture described in Table 12 and Table 13 was divided into two PCT tubes. The mixture was then incubated at 37° C. for 2:30 hours. Next, the samples were run on a 1% agarose gel."}, "[11]": {"tested_on": "ssM13 (M13mp18 single-stranded plasmid)", "assay": "NucC activity assay with M13 plasmid (single-stranded)", "assay_type": "biochemical", "details": "10 nM NucC, 10 nM c(triAMP), 37° C., 2:30 hours, 1% agarose gel", "experimental": "as §1, §2\nA second NucC Mix (ssM13) was prepared as outlined in Table 13 below.\nas §3"}}, "note": "Entries after “also recorded” stand apart in the source; their conditions may differ. {FAM} = 6-carboxyfluorescein (IDT 56-FAM); {IABkFQ} = Iowa Black FQ quencher", "data": [{"molecule": "5′-/56 FAM/rArUrGrUrCrCrCrCrUrGrArA/3IABKFQ/-3′ (AUGUCCCCUGAA; RNA, 5' {FAM}, 3' {IABkFQ}, backbone not given here) [FAM-Q UCU]", "values": [{"measurement": "reporter preference upon cleavage by TtCsm6", "setting": "TtCsm6 [1]", "value": "best reporters"}, {"measurement": "reporter preference upon cleavage by SyCsx1", "setting": "SyCsx1 [2]", "value": "best reporters"}, {"measurement": "reporter preference upon cleavage by PfuCsx1", "setting": "PfuCsx1 [3]", "value": "best reporters"}]}, {"molecule": "cyclic hexaAMP [cA6]", "values": [{"measurement": "activation of SyCsx1 (fluorescence time course)", "setting": "SyCsx1 [4]", "value": "activated"}]}, {"molecule": "cyclic tetraAMP [cA4]", "values": [{"measurement": "activation of TtCsm6 (fluorescence time course)", "setting": "TtCsm6 [5]", "value": "activated"}, {"measurement": "activation of SyCsx1 (fluorescence time course)", "setting": "SyCsx1 [4]", "value": "activated"}, {"measurement": "rapidity of SyCsx1 activation (time until maximum fluorescence)", "setting": "SyCsx1 [4]", "value": "most rapid activations"}, {"measurement": "activation of PfuCsx1 (fluorescence time course)", "setting": "PfuCsx1 [6]", "value": "activated"}]}, {"molecule": "cyclic triAMP [c-triAMP]", "values": [{"measurement": "degradation of the dsM13 plasmid by NucC in the presence of activator", "setting": "NucC enzyme; FIG. 13", "value": "complete degradation"}, {"measurement": "activation of the NucC enzyme", "setting": "NucC enzyme; dsM13 plasmid, 1.5% agarose gel", "value": "achieved; also recorded: activated"}]}, {"molecule": "linear tetraAMP>P [rA4>P]", "values": [{"measurement": "activator concentration that activates SyCsx1 (detection limit)", "setting": "SyCsx1 [7]", "value": 0.1, "unit": "nM"}, {"measurement": "activator concentration that activates TtCsm6 (detection limit)", "setting": "TtCsm6 [8]", "value": "≥ 1", "unit": "µM"}, {"measurement": "activator concentration that activates PfuCsx1 (detection limit)", "setting": "PfuCsx1 [9]", "value": "≥ 1", "unit": "µM"}, {"measurement": "activation of TtCsm6 (fluorescence time course)", "setting": "TtCsm6 [5]", "value": "activated"}, {"measurement": "activation of SyCsx1 (fluorescence time course)", "setting": "SyCsx1 [4]", "value": "activated"}, {"measurement": "rapidity of SyCsx1 activation (time until maximum fluorescence)", "setting": "SyCsx1 [4]", "value": "most rapid activations"}, {"measurement": "activation of PfuCsx1 (fluorescence time course)", "setting": "PfuCsx1 [6]", "value": "activated"}]}, {"molecule": "linear triAMP>P [rA3>P]", "values": [{"measurement": "activation of SyCsx1 (fluorescence time course)", "setting": "SyCsx1 [4]", "value": "activated"}]}, {"molecule": "B1", "values": [{"measurement": "cleavage of double-stranded DNA", "setting": "[10]", "value": "cleaved"}, {"measurement": "cleavage of single-stranded nucleic acid", "setting": "[11]", "value": "not"}]}]}
